From patent US20060100103A1, “Toning agents for use in thermographic recording materials” (AGFA-GEVAERT, priority 2004, published 2006)

Experiment: Solubility in methyl ethyl ketone
Assay type: physicochemical

Solubility in methyl ethyl ketone [wt %]	Compound
>2	CN1C(=O)NS(=O)(=O)c2ccccc21 [TA01]
>10	CC1=CC(=O)NS(=O)(=O)O1 [TA02]
5.5	O=C1CS(=O)(=O)OC2=C1CCCC2 [TA03]
>10	O=C1NS(=O)(=O)Oc2ccccc21 [TA04]
